# Laboratory results from ChEMBL document CHEMBL1146423, “Adenosine-1 active ligands: cirsimarin, a flavone glycoside from Microtea debilis” (J Nat Prod, 1997).
# The source made the active and inactive calls. The rule behind the calls is not given here.
# Key:
# Format in all cases: cell membranes
# [1] = biological target: T1, Adenosine receptor A1 (Rattus norvegicus) (UniProt P25099); assay: Displacement of [3H]DPCPX from adenosine A1 receptor in rat forebrain membrane assessed as fraction of receptor bound radioligand at 100 ug/mL
# T1 sequence (whole entry): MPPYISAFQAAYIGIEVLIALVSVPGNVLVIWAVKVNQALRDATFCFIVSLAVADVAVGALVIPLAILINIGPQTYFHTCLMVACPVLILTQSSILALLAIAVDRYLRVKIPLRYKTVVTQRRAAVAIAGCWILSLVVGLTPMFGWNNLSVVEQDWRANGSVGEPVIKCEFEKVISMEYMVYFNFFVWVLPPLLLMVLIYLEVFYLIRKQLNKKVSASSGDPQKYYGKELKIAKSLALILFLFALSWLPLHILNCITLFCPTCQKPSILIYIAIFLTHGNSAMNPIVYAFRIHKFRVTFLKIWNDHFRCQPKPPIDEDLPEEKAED
# Adenosine receptor A1 = biological target: T2, Adenosine receptor A1 (Rattus norvegicus, UniProt P25099); assay: Displacement of [3H]DPCPX from adenosine A1 receptor in rat forebrain membrane
# T2 sequence (P25099 whole entry): T1 sequence (whole entry)
# [2] = biological target: T1, Adenosine receptor A1 (Rattus norvegicus); assay: Displacement of [3H]DPCPX from adenosine A1 receptor in rat forebrain membrane in presence of GTP
Compound,Activity [1] [%],Ki (Adenosine receptor A1) [µM],Activity [2]
O=c1c(O[C@@H]2O[C@H](CO)[C@H](O)[C@H](O)[C@H]2O)c(-c2ccc(O)c(O)c2)oc2cc(O)cc(O)c12,86,,
COc1cc(-c2cc(=O)c3c(O)cc(O[C@@H]4O[C@H](CO)[C@@H](O)[C@H](O)[C@H]4O[C@@H]4O[C@@H](C)[C@H](O)[C@@H](O)[C@H]4O)cc3o2)ccc1O,94,,
C[C@@H]1O[C@@H](OC[C@H]2O[C@@H](Oc3c(-c4ccc(O)cc4)oc4cc(O)cc(O)c4c3=O)[C@H](O)[C@@H](O)[C@@H]2O)[C@H](O)[C@H](O)[C@H]1O,37,,
C[C@@H]1O[C@@H](Oc2c(-c3ccc(O)c(O)c3)oc3cc(O)cc(O)c3c2=O)[C@H](O)[C@H](O)[C@H]1O (stereo in doubt; 6),50,,
O=c1c(O)c(-c2ccc(O)cc2)oc2cc(O)cc(O)c12,18,,
O=c1cc(-c2ccc(O)cc2)oc2cc(O)cc(O)c12,50,,
C[C@@H]1O[C@@H](OC[C@H]2O[C@@H](Oc3c(-c4ccc(O)c(O)c4)oc4cc(O)cc(O)c4c3=O)[C@H](O)[C@@H](O)[C@@H]2O)[C@H](O)[C@H](O)[C@H]1O,103,,
COc1cc2oc(-c3ccc(O[C@@H]4O[C@H](CO)[C@@H](O)[C@H](O)[C@H]4O)cc3)cc(=O)c2c(O)c1OC [CIRSIMARIN],2,3.2,Active
C[C@@H]1O[C@@H](Oc2c(-c3ccc(O)c(O)c3)oc3cc(O)cc(O)c3c2=O)[C@H](O)[C@H](O)[C@H]1O (stereo in doubt; 8),58,,
COc1cc2oc(-c3ccc(O)cc3)cc(=O)c2c(O)c1OC,48,,
O=c1cc(-c2ccc(O)cc2)oc2c([C@@H]3O[C@H](CO)[C@@H](O)[C@H](O)[C@H]3O)c(O)cc(O)c12,103,,
O=c1c(O)c(-c2cc(O)c(O)c(O)c2)oc2cc(O)cc(O)c12,24,,
